From article PMC2649009 (Journal of medicinal chemistry, 2008) come the findings set out here.

The assay has as its target T1, human GIVA cPLA2 (Homo sapiens, UniProt P47712).
T1 sequence (P47712 1-749): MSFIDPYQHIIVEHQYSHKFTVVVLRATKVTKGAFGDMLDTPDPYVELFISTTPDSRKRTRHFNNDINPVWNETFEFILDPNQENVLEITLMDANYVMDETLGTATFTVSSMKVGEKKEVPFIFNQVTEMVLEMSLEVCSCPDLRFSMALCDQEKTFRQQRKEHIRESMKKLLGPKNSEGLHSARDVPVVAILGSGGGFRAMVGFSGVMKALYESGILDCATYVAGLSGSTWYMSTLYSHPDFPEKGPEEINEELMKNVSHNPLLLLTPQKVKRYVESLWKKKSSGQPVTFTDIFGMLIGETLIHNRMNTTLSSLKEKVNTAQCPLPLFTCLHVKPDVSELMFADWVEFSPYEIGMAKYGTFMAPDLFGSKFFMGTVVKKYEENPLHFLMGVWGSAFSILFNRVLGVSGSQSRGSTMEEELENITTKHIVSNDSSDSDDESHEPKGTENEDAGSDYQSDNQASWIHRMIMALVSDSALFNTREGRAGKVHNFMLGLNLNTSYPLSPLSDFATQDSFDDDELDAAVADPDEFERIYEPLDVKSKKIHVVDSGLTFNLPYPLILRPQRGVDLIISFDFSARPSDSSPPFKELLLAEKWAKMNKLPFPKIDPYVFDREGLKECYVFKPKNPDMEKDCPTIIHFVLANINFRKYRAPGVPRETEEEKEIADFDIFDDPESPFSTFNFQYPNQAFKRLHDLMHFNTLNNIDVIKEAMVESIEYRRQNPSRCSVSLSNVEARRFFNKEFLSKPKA
In words: mixed micelle-based modified Dole assay, GIVA cPLA2 inhibition. In kind it is biochemical. Particulars: mole fraction of inhibitor in total substrate interface giving 50% inhibition.

The structures appear in SMILES notation.

As for `CCCCCCCCCCCCCCC(F)C(=O)C(F)(F)F` (centres unmarked) [compound 26, 1,1,1,3-Tetrafluoro-heptadecan-2-one], the “GIVA cPLA2 XI(50)” value stood at 0.0167 mole fraction.

`CCCCCCCCCCCCCCCC(=O)C(F)(F)F` [compound 6, palmitoyl trifluoromethyl ketone, reference compound]: the “GIVA cPLA2 XI(50)” value is reported as 0.0223 mole fraction.
